For experiment [1], the target named is Glutamate NMDA receptor (Rattus norvegicus) (UniProt P35439+Q00959+Q00960+Q00961+Q62645+Q8VHN2+Q9R1M7). Kind of experiment: Selectivity ratio for CPP and gly NMDA binding. It counts as protein-complex assay.
Experiment [2] concerns the target Glutamate NMDA receptor. Kind of experiment: Activity against rat cortical and hippocampal membrane N-methyl-D-aspartate glutamate receptor 1/2A/2B/2C/2D using [3H]CPP. It counts as tissue-based, Hippocampus.
The target of experiment [3] is Glutamate NMDA receptor. Kind of experiment: Activity against rat cortical and hippocampal membrane strychnine-insensitive N-methyl-D-aspartate glutamate receptor 1 using [3H]-gly. It counts as tissue-based, Hippocampus.
The species named for the next experiment is Rattus norvegicus. In words: Activity was determined by inhibition of glutamate stimulated accumulation of cyclic GMP in neonatal rat cerebral slices. The experiment is classed as functional.

The text below walks through data of ChEMBL document CHEMBL1124998, “3-(2-carboxyindol-3-yl)propionic acid derivatives: antagonists of the strychnine-insensitive glycine receptor associated with the N-methyl-D-aspartate receptor complex” (J Med Chem, 1990).

On to `O=C(O)c1cc2ccccc2[nH]1` [INDOLE-2-CARBOXYLIC ACID], for which the Ratio in experiment [1] is 40. For the same molecule, the figures for the IC50 at Glutamate NMDA receptor [2] and at Glutamate NMDA receptor [3] were 4200 µM and 106 µM, respectively.
Regarding `O=C(O)CCc1c(C(=O)O)[nH]c2cc(Cl)cc(Cl)c12`, the Ratio in experiment [1] was 2550. The values for the IC50 at Glutamate NMDA receptor [2], against Glutamate NMDA receptor [3] and in the experiment filed under Rattus norvegicus were 358 µM, 0.14 µM and 5 µM, respectively.
`O=C(O)CCc1c(C(=O)O)[nH]c2ccc(Cl)cc12`: the Ratio in experiment [1] was 1.8. Besides, the IC50 (commonly the midpoint of a concentration-inhibition curve) came to 25 µM against Glutamate NMDA receptor [2] and 14 µM on Glutamate NMDA receptor [3].
As for `O=C(O)c1cc(O)c2c(Cl)cc(Cl)cc2n1`, the Ratio in experiment [1] is 150. For the same molecule, the IC50 worked out at 12 µM at Glutamate NMDA receptor [2], 0.08 µM at Glutamate NMDA receptor [3] and 2.5 µM in the experiment filed under Rattus norvegicus.
In the case of `O=C(O)CCc1c(C(=O)O)[nH]c2cc(Cl)ccc12`, the Ratio in experiment [1] amounted to 105. Moreover, the figures for the IC50 against Glutamate NMDA receptor [2] and against Glutamate NMDA receptor [3] were 283 µM and 2.7 µM, respectively.
As for `O=C(O)CCc1c(C(=O)O)[nH]c2c(Cl)cccc12`, the Ratio in experiment [1] was > 1. In addition, the results for the half-maximal inhibitory concentration (IC50) at Glutamate NMDA receptor [2] and on Glutamate NMDA receptor [3] were > 100 µM and 90 µM, respectively.
`O=C(O)c1cc(O)c2ccc(Cl)cc2n1` [7-CHLOROKYNURENIC ACID]: the Ratio in experiment [1] turned out to be 405. For the same molecule, the IC50 against Glutamate NMDA receptor [2] was 162 µM; at Glutamate NMDA receptor [3] it was 0.4 µM; in the experiment filed under Rattus norvegicus, 8 µM.
The molecule `O=C(O)c1cc(=O)c2ccccc2[nH]1` [TRANSTORINE] gave an IC50 in the experiment filed under Rattus norvegicus of 167 µM.
On to `O=C(O)CCc1c(C(=O)O)[nH]c2ccccc12`, for which the Ratio in experiment [1] was 1. In addition, the figures for the IC50 on Glutamate NMDA receptor [2] and on Glutamate NMDA receptor [3] were 34 µM and 30 µM, respectively.
The corresponding values for `O=C(O)CCc1c(C(=O)O)[nH]c2cccc(Cl)c12` are 10, 59 µM and 6 µM.
As to `O=C(O)c1cc2c(Cl)cc(Cl)cc2[nH]1`, the Ratio in experiment [1] was > 150. Besides, the IC50 against Glutamate NMDA receptor [2] was > 1000 µM; against Glutamate NMDA receptor [3], 6 µM.
